Read-outs that look alike come from different tables or passages of the source.
What was measured:
[1] = biological target: T1, truncated CK1δ (Homo sapiens, UniProt P48730); experiment: CK1δ luminescent kinase assay (Kinase-Glo); format: biochemical; details: for remaining activity at 10 µM / remaining activity at 40 µM: CK1δ residual activity; for remaining activity at 10 µM: compound at 10 μM, read-out: % Residual Activity at 10 μM ± sd; for remaining activity at 40 µM: compound at 40 μM, read-out: % Residual Activity at 40 μM ± sd; for IC50: truncated CK1δ, ATP 2 μM, read-out: IC50 (μM), CK1δ inhibition
T1 construct: recombinant human, GST-tagged, aa 1-294; GST; purchased Merck Millipore, Merck KGaA, Darmstadt, Germany
T1 sequence (P48730 1-294): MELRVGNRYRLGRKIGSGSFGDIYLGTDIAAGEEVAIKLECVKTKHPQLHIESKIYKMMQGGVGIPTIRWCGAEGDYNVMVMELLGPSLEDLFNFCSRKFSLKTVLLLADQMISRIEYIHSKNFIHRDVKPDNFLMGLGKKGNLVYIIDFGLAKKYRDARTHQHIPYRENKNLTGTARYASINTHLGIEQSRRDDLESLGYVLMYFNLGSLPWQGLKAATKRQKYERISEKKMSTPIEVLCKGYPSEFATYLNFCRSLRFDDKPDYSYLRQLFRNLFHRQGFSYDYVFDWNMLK
Procedure: Luminescent assays were performed in white 96-well plates in a 40 μL final volume with buffer containing 50 mM HEPES (pH 7.5), 1 mM EDTA, 1 mM EGTA, and 15 mM MgCl2. In a typical assay, 10 μL of inhibitor solution (desired concentrations were obtained by diluting a starting 10 mM solution in DMSO) and 10 μL of enzyme solution were added to the well, followed by 20 μL of assay buffer containing casein substrate (Sigma-Aldrich, Merck KGaA, Darmstadt, Germany, casein solution from bovine milk, 5% in water) and ATP, at a final concentration of 0.05% and 2 μM, respectively. […] After 60 min of incubation at 30 °C, the enzymatic reactions were stopped with the addition of 40 μL of KinaseGlo reagent. […] Data were analyzed using Excel and GraphPad Prism software (version 8.0).

[2] = biological target: T2, human recombinant A1AR (Homo sapiens, UniProt P30542); experiment: [3H]CCPA displacement binding in CHO cell membranes; details: mean ± standard error, read-out: KiA1
T2 construct: expressed in transfected cells; host or cells: CHO cells (membranes)
T2 sequence (P30542 1-326): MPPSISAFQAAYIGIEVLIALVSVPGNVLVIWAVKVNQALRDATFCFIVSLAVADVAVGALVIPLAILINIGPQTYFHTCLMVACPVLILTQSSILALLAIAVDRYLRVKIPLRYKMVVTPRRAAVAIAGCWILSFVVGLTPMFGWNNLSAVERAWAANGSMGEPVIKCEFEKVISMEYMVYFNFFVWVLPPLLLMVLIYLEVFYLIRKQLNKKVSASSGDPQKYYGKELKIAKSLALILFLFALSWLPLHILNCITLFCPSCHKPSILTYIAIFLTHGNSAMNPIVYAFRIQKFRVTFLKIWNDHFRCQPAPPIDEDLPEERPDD
Procedure: (§1) Compounds 5, 6, 8–12, 15–21, and 23–25 were evaluated in binding studies at human recombinant A1, A2A, and A3 ARs, stably transfected in Chinese hamster ovary (CHO) cells. [^3H]CCPA (2-chloro-N^6-cyclopentylAdo), [^3H]NECA (5’-N-ethylcarboxamidoAdo), and [^3H]HEMADO (2-hexynyl-N^6-methylAdo) were used as the, respective, radioligands. All compounds were also tested at the A2BARs by inhibition of NECA-stimulated adenylyl cyclase activity, using the GloSensor cAMP assay, but none of them were active at a concentration up to 30 μM [35]. The results, together with the data of the reference adenine derivative 1, are reported in Table 2 as Ki values in μM (± standard errors). In the table, the IC50 values (μM) of the CK1δ inhibitory activity are also indicated. […] We called the compounds endowed with receptor antagonist behavior combined with an enzyme inhibitory activity “dual anta-inhibitors”.
(§2) All of the pharmacological methods followed the procedures as described earlier. In brief, the membranes for radioligand binding were prepared from CHO cells stably transfected with human adenosine receptor subtypes through two centrifugations at different speeds. The first low-speed […] centrifugation allowed for the removal of cell fragments and nuclei, while the second, performed at high speed (100,000× g), allowed for the precipitation of the crude membrane fractions. The resulting membrane pellet was resuspended in the buffer used for the respective binding experiments, frozen in liquid nitrogen, and stored in aliquots at −80 °C.
(§3) The binding affinity of the novel compounds was evaluated using radioligand competition experiments in CHO cells stably expressing hA1AR, hA2AAR, hA3AR subtypes, as early described. Results were expressed as Ki values (dissociation constants), which were calculated with the program GraphPad (GraphPad Software, San Diego, CA, USA). Each concentration was tested three–five times in duplicate and the values given as the mean ± standard error (S.E.). The potency of compounds at the hA2BAR (expressed on CHO cells) was determined through a GloSensor cAMP Assay.

[3] = biological target: T3, human recombinant A2AAR (Homo sapiens, UniProt P29274); experiment: [3H]NECA displacement binding in CHO cell membranes; details: mean ± standard error, read-out: KiA2A
T3 construct: expressed in transfected cells; host or cells: CHO cells (membranes)
T3 sequence (P29274 whole entry): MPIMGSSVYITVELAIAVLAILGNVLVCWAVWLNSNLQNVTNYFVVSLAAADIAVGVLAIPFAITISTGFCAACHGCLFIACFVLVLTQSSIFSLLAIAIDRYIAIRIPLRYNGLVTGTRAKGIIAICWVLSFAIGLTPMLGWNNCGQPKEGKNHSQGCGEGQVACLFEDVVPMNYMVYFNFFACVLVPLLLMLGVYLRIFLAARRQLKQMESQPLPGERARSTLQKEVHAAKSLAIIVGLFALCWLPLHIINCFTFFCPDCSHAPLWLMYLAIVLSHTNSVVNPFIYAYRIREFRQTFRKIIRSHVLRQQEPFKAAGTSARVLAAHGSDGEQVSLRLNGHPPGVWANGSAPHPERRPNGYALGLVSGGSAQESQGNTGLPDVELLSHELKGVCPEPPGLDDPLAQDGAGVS
Procedure: as §1, §2, §3

[4] = biological target: T4, human recombinant A3AR (Homo sapiens, UniProt P0DMS8); experiment: [3H]HEMADO displacement binding in CHO cell membranes; details: mean ± standard error, read-out: KiA3
T4 construct: expressed in transfected cells; host or cells: CHO cells (membranes)
T4 sequence (P0DMS8 1-318): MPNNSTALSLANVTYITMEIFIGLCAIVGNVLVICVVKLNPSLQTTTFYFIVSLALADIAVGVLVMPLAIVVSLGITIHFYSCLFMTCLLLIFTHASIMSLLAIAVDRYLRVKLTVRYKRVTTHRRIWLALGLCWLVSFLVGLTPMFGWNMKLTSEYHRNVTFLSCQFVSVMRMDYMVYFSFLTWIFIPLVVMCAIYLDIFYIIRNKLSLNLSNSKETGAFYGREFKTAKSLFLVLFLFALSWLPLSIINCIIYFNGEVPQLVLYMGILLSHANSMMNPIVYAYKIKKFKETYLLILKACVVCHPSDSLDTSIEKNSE
Procedure: as §1, §2, §3

[5] = biological target: T5, hA2AAR (Homo sapiens, UniProt P29274); experiment: Antagonism of NECA-induced cAMP accumulation in CHO cells, GloSensor cAMP assay; format: cell-based; details: CHO cells stably expressing hA2AAR; read-out: IC50, inhibition of NECA effect on cAMP production
T5 construct: expressed in transfected cells; host or cells: CHO cells stably expressing hA2AAR and pGloSensor-22F
T5 sequence (P29274 whole entry): as the sequence (P29274 whole entry) above
Procedure: In order to confirm the antagonist activity of the dual anta-inhibitors 12 and 17, they were evaluated in a functional assay in CHO cells stably expressing the hA2AAR. Firstly, they were tested alone, and […] in terms of cAMP stimulation was observed. […] Both 12 and 17 were able to inhibit the effect of NECA on cAMP production, thus resulting in A2AAR antagonists.
Functional activity was determined as described earlier. Briefly, cells stably expressing both the hA2A or hA2B AR and the plasmid pGloSensor-22F coding for the biosensor were cultured. This biosensor encodes for a genetically modified form of firefly luciferase into which a cAMP-binding protein moiety was inserted. The desiderate cell number was harvested and incubated for 2 h at r.t., with 3% v/v GloSensor cAMP reagent stock solution, 10% FBS, and 87% CO2 independent medium. Cells were dispensed in the wells of a 384-well plate and the reference agonist NECA or the under-study compounds were added at different concentrations. Since the compounds were unable to stimulate cAMP production, they were studied as antagonists. The antagonist profile was evaluated by assessing the ability to counteract an NECA-induced increase in cAMP accumulation. Responses were expressed as a percentage of the maximal relative luminescence units (RLU). Concentration–response curves were fitted by a nonlinear regression using Prism software. […]

[6] = test system: CK1δ/ε; details: read-out: IC50 as CK1δ/ε inhibitor; cited from earlier work
[7] = test system: CDK5; design: method as in PMID 18698753, PMID 29289448; details: cited from earlier work
[8] = biological target: T3, human recombinant A2AAR; details: read-out: KiA2AAR; cited from earlier work
[9] = test system: CK1δ; details: cited from earlier work
[10] = test system: CK1ε; details: cited from earlier work

Compound | remaining activity at 10 µM [1] [%] | remaining activity at 40 µM [1] [%] | IC50 [1] [µM] | Ki [2] [nM] | Ki [3] [nM] | Ki [4] [nM] | IC50 [5] [nM] | IC50 [6] [nM] | other results
CN(C)c1nc(N)c2ncn(C3CCCC3)c2n1 [Compound 12, 9-Cyclopentyl-N^2,N^2-dimethyl-9H-purine-2,6-diamine] | 27 ± 4 | 19 ± 9.4 | 1.75 ± 0.2 | 3340 ± 658 | 123 ± 2 | 2880 ± 695 | 418 ± 98 | – | –
CN(C)c1nc(NCc2nc3ccccc3[nH]2)c2ncn(C3CCCC3)c2n1 [Compound 17, N^6-((1H-benzo[d]imidazol-2-yl)methyl)-9-cyclopentyl-N^2,N^2-dimethyl-9H-purine-2,6-diamine] | 34 ± 5 | 22 ± 1 | 0.59 ± 0.2 | 2900 ± 648 | 76 ± 17 | 1150 ± 107 | 69 ± 18 | – | –
CC[C@H](CO)Nc1nc(Nc2ccc(-c3cccnc3)cc2)c2ncn(C(C)C)c2n1 [(R)-DRF053] | – | – | – | – | – | – | – | 14 | IC50 [7]: 80 nM
Fc1cccc(-n2cnc3c(NCc4nc5ccc(Cl)cc5[nH]4)nc(N4CCNCC4)nc32)c1 [SR-2890] | – | – | – | – | – | – | – | 4 | –
CCn1cnc2c(N)nc(Cl)nc21 [Compound 3] | 71 | 41 | > 10 | – | – | – | – | – | Ki [8]: 3000 nM
c1ccc2[nH]c(CNc3nc(N4CCOCC4)nc4c3ncn4-c3ccsc3)nc2c1 [SR-653234] | – | – | – | – | – | – | – | – | IC50 [9]: 160 nM; IC50 [10]: 540 nM

Source: article PMC9960553, ““Dual Anta-Inhibitors” of the A2A Adenosine Receptor and Casein Kinase CK1delta: Synthesis, Biological Evaluation, and Molecular Modeling Studies” (Pharmaceuticals, 2023)
